Experimental data as given in patent US5059590A, “Imidazole derivatives, process for production thereof, and use thereof” (Yamasa Shoyu Kabushiki Kaisha, priority 1988, dated 1991).
Values after ≈ are worked out from the molar mass of the structure shown.

Columns and labels:
sarcoma 180 = test: In vivo antitumor activity against sarcoma 180 intracutaneously implanted into BALB/c mice; parameters: species or system mouse; key to Tumor growth rate (Rt): R = tumor volume at time / tumor volume on day 8 (A/A8); details: for antitumor activity: i.v.
Protocol: In vivo antitumor activity against sarcoma 180 intracutaneously implanted into BALB/c mice
Three million (3×10^6) Sarcoma 180 cells are intracutaneously implanted at the ventral site of BALB/c mice (male, 5 weeks old). Eight days after the implantation when the tumor volume reached 200 to 300 mm^3, the mice are divided into groups (6 mice/group), and the treatment with a test drug was started. The test drug is dissolved in distilled water and intravenously administered to the mice at a rate of 0.1 ml per 10 g of the body weight thereof. In accordance with two different schedules, 5-ethynyl01β-D-ribofuranosylimidazole-4-carboxamide is administered once or three times, i.e., once at a dose of 250 mg/kg on day 8 (single-dose group) or three times at a dose of 125 mg/kg on days 8, 12 and 16 (multiple-dose group).
Each mouse is weighed, and the width (a mm) and length (b mm) of the tumor thereof are measured twice a week to determine the tumor volume (A mm^3) from the following equation: […]
Subsequently, the tumor growth rate (R) is determined as follows on the basis of the tumor volume (A8) on day 8 after the implantation of the tumor cells :
R: Tumor growth rate after a predetermined period from the tumor implantation
A: Tumor volume after a predetermined period from the tumor implantation
A8 : Tumor volume as determided 8 days after the tumor implantation
T/C(%) is further obtained from the following equation by comparison between the tumor growth rate in the test group (Rt) and that in the control group (Rc):
Single-dose group: 250 mg/kg of the drug was intravenously administered o
day 8 after the tumor implantation.
Multipledose group: 125 mg/kg of the drug was intravenously administered
on days 8, 12 and 16 after the tumor implantation.

QG-56 = test: In vitro anti-proliferative activity against human tumor cell lines (QG-56); assay type: cell-based; details: QG-56, Lung squamous carcinoma, 72 hours
Protocol: (§1) In vitro anti-proliferative activity against human tumor cell lines
(§2) Test Compound: 5-ethynyl-1-β-D-ribofuranosylimidazole-4-carboxamide
(§3) A variety of human tumor cell lines are suspended in media specified according to the species of the cell lines to predetermined cell concentrations as shown in the following Table.
(§4) 1 ml of the resulting cell suspension is seeded into each well of a 24 multi-well plate and incubated in a 5% CO2 -incubator at 37° C. for 24 hours. The culture medium is then replaced by a medium containing no test compound or by an appropriate amount of a serially diluted test compound solution. […] The number of the cells in each well is counted with a Coulter counter (Model ZB, Coulter Electronics), and the growth inhibition percent (%) of the cells at each concentration of a test compound is determined by the following equation: [formula] Tx: Number of the cells in a well containing a test compound as counted upon completion of the incubation (cells/ml) […] Cx: Number of the cells in a well containing no test compound as counted upon completion of the incubation (cells/ml)
(§5) Co: Number of the cells in a well containing no test compound as counted at the initiation of the incubation (cells/ml) […]

KU-2 = test: In vitro anti-proliferative activity against human tumor cell lines (KU-2); assay type: cell-based; details: KU-2, Renal cell carcinoma, 72 hours
Protocol: as §1, §2, §3, §4, §5

KB = test: In vitro anti-proliferative activity against human tumor cell lines (KB); assay type: cell-based; details: Nasopharyngeal carcinoma, 72 hours
Protocol: as §1, §2, §3, §4, §5

PC-3 = test: In vitro anti-proliferative activity against human tumor cell lines (PC-3); assay type: cell-based; details: PC-3, Prostate adenocarcinoma, 72 hours
Protocol: as §1, §2, §3, §4, §5

A549 = test: In vitro anti-proliferative activity against human tumor cell lines (A549); assay type: cell-based; details: A549, Lung carcinoma, 72 hours
Protocol: as §1, §2, §3, §4, §5

mouse sarcoma 180 = test: In vitro anti-proliferative activity against mouse tumor cell lines, Test Method 2 (sarcoma 180); assay type: cell-based; details: Sarcoma 180, 48 hours, 37° C.
Protocol: In vitro anti-proliferative activity against mouse tumor cell lines
1. Mouse lymphoma cell line P388 or mouse sarcoma 180 is suspended in RPMI1640 medium supplemented with 10% fetal bovine serum and 2 μM 2-hydroxyethyl disulfide to a concentration of 10^5 cells/ml. Test compounds are serially diluted with the same medium.
2. 0.5 ml of the cell suspension thus obtained is admixed with 0.5 ml of the medium or the test compound solution, and the mixture is incubated in a 5% CO2 -incubator at 37° C. for 48 hours. The incubation is carried out in glass culture tubes.
3. At the end of incubation, the number of the cells in each tube is counted with a Coulter counter (Model ZB, Coulter Electronics), and the growth inhibition percent (%) is calculated from the same equation as in Test Method 1.
4. The IC50 value is obtained as in Test Method I.

HEp-2 = test: In vitro anti-proliferative activity against human tumor cell lines (HEp-2); assay type: cell-based; details: HEp-2, Laryngeal carcinoma, 72 hours
Protocol: as §1, §2, §3, §4, §5

Dul45 = test: In vitro anti-proliferative activity against human tumor cell lines (Dul45); assay type: cell-based; details: Dul45, Prostate carcinoma, 72 hours
Protocol: as §1, §2, §3, §4, §5

U-2OS = test: In vitro anti-proliferative activity against human tumor cell lines (U-2OS); assay type: cell-based; details: U2OS, Osteogenic sarcoma, 72 hours
Protocol: as §1, §2, §3, §4, §5

[1] = multiple-dose group, 125 mg/kg i.v. days 8, 12, 16, day 8 after implantation
[2] = multiple-dose group, 125 mg/kg i.v. days 8, 12, 16, day 12
[3] = multiple-dose group, 125 mg/kg i.v. days 8, 12, 16, day 15, * = P < 0.05 vs control
[4] = multiple-dose group, 125 mg/kg i.v. days 8, 12, 16, day 19, * = P < 0.05 vs control
[5] = multiple-dose group, 125 mg/kg i.v. days 8, 12, 16, day 22, * = P < 0.05 vs control
[6] = multiple-dose group, 125 mg/kg i.v. days 8, 12, 16, day 26, * = P < 0.05 vs control
[7] = multiple-dose group, 125 mg/kg i.v. days 8, 12, 16, day 29, * = P < 0.05 vs control
[8] = multiple-dose group, 125 mg/kg i.v. days 8, 12, 16, day 33
[9] = single-dose group, 250 mg/kg i.v. day 8, day 8 after implantation
[10] = single-dose group, 250 mg/kg i.v. day 8, day 12, * = P < 0.05 vs control
[11] = single-dose group, 250 mg/kg i.v. day 8, day 15, * = P < 0.05 vs control
[12] = single-dose group, 250 mg/kg i.v. day 8, day 19, * = P < 0.05 vs control
[13] = single-dose group, 250 mg/kg i.v. day 8, day 22, * = P < 0.05 vs control
[14] = single-dose group, 250 mg/kg i.v. day 8, day 26, * = P < 0.05 vs control
[15] = single-dose group, 250 mg/kg i.v. day 8, day 29, * = P < 0.05 vs control
[16] = single-dose group, 250 mg/kg i.v. day 8, day 33, * = P < 0.05 vs control

C#Cc1c(C(N)=O)ncn1[C@@H]1O[C@H](CO)[C@@H](O)[C@H]1O [5-ethynyl-1-β-D-ribofuranosylimidazole-4-carboxamide]
antitumor activity (sarcoma 180; 125 mg/kg every 4 days 3 times in total): remarkable antitumor activity | Body weight (sarcoma 180; [1]): 26 g | T/C (%) (sarcoma 180; [1]): 100% | Tumor growth rate (Rt) (sarcoma 180; [1]): 1.0 | Body weight (sarcoma 180; [2]): 26 g | T/C (%) (sarcoma 180; [2]): 81% | Tumor growth rate (Rt) (sarcoma 180; [2]): 1.5 | Body weight (sarcoma 180; multiple-dose group, 125 mg/kg i.v. days 8, 12, 16, day 15): 25 g | T/C (%) (sarcoma 180; [3]): 51% | Tumor growth rate (Rt) (sarcoma 180; [3]): 1.5 | Body weight (sarcoma 180; multiple-dose group, 125 mg/kg i.v. days 8, 12, 16, day 19): 25 g | T/C (%) (sarcoma 180; [4]): 45% | Tumor growth rate (Rt) (sarcoma 180; [4]): 1.9 | Body weight (sarcoma 180; multiple-dose group, 125 mg/kg i.v. days 8, 12, 16, day 22): 26 g | T/C (%) (sarcoma 180; [5]): 37% | Tumor growth rate (Rt) (sarcoma 180; [5]): 2.6 | Body weight (sarcoma 180; multiple-dose group, 125 mg/kg i.v. days 8, 12, 16, day 26): 26 g | T/C (%) (sarcoma 180; [6]): 39% | Tumor growth rate (Rt) (sarcoma 180; [6]): 4.7 | Body weight (sarcoma 180; multiple-dose group, 125 mg/kg i.v. days 8, 12, 16, day 29): 26 g | T/C (%) (sarcoma 180; [7]): 42% | Tumor growth rate (Rt) (sarcoma 180; [7]): 7.0 | Body weight (sarcoma 180; [8]): 27 g | T/C (%) (sarcoma 180; [8]): 53% | Tumor growth rate (Rt) (sarcoma 180; [8]): 11 | antitumor activity (sarcoma 180; once at a dose of 250 mg/kg): remarkable antitumor activity | Body weight (sarcoma 180; [9]): 25 g | T/C (%) (sarcoma 180; [9]): 100% | Tumor growth rate (Rt) (sarcoma 180; [9]): 1.0 | Body weight (sarcoma 180; single-dose group, 250 mg/kg i.v. day 8, day 12): 24 g | T/C (%) (sarcoma 180; [10]): 65% | Tumor growth rate (Rt) (sarcoma 180; [10]): 1.2 | Body weight (sarcoma 180; single-dose group, 250 mg/kg i.v. day 8, day 15): 25 g | T/C (%) (sarcoma 180; [11]): 45% | Tumor growth rate (Rt) (sarcoma 180; [11]): 1.3 | Body weight (sarcoma 180; single-dose group, 250 mg/kg i.v. day 8, day 19): 25 g | T/C (%) (sarcoma 180; [12]): 46% | Tumor growth rate (Rt) (sarcoma 180; [12]): 2.0 | Body weight (sarcoma 180; single-dose group, 250 mg/kg i.v. day 8, day 22): 26 g | T/C (%) (sarcoma 180; [13]): 34% | Tumor growth rate (Rt) (sarcoma 180; [13]): 2.4 | Body weight (sarcoma 180; single-dose group, 250 mg/kg i.v. day 8, day 26): 26 g | T/C (%) (sarcoma 180; [14]): 39% | Tumor growth rate (Rt) (sarcoma 180; [14]): 4.7 | Body weight (sarcoma 180; single-dose group, 250 mg/kg i.v. day 8, day 29): 26 g | T/C (%) (sarcoma 180; [15]): 39% | Tumor growth rate (Rt) (sarcoma 180; [15]): 6.6 | Body weight (sarcoma 180; single-dose group, 250 mg/kg i.v. day 8, day 33): 27 g | T/C (%) (sarcoma 180; [16]): 45% | Tumor growth rate (Rt) (sarcoma 180; [16]): 9.5 | IC50 (QG-56): 0.37 µg/mL (≈ 1.38 µM) | IC50 (KU-2): < 0.1 µg/mL | IC50 (KB): 0.33 µg/mL (≈ 1.23 µM) | IC50 (PC-3): 0.8 µg/mL (≈ 2.99 µM) | IC50 (A549): 0.37 µg/mL (≈ 1.38 µM) | IC50 (mouse sarcoma 180): 0.1 µg/mL (≈ 0.374 µM) | IC50 (HEp-2): 0.47 µg/mL (≈ 1.76 µM) | IC50 (Dul45): < 0.1 µg/mL | IC50 (U-2OS): 0.62 µg/mL (≈ 2.32 µM)
